Assays:
[1] = test system: surinam grass; assay: Test B pre/postemergence surinam grass; format: in vivo, Brachiaria decumbens
Procedure, shortened: (§1)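 Herbicidal effect was estimated by eye on a ten-point control scale after plants spent twelve to sixteen days in a greenhouse following soil or foliar treatment. Foliar sprays targeted plants at one to four leaves; all doses were formulated in a non-phytotoxic solvent with surfactant.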

[2] = test system: corn; assay: Test B pre/postemergence corn; format: in vivo, Zea mays
Procedure, shortened: as §1

[3] = test system: crabgrass; assay: Test B pre/postemergence crabgrass; format: in vivo, Digitaria sanguinalis
Procedure, shortened: as §1

[4] = test system: cocklebur; assay: Test B pre/postemergence cocklebur; format: in vivo, Xanthium strumarium
Procedure, shortened: as §1

[5] = Postemergence, Rate 125 g/ha, scale of 0 to 10 where 0 is no effect and 10 is complete control
[6] = Preemergence, Rate 62 g/ha, scale of 0 to 10 where 0 is no effect and 10 is complete control
[7] = Preemergence, Rate 125 g/ha, 0 is no effect, 10 is complete control
[8] = Preemergence, Rate 250 g/ha, scale 0 to 10, 0 is no effect, 10 is complete control
[9] = Preemergence, Rate 500 g/ha, scale 0 to 10 (0 no effect, 10 complete control)
[10] = Rate 62 g/ha, Postemergence, scale of 0 to 10 where 0 is no effect and 10 is complete control
[11] = Rate 250 g/ha, Postemergence, scale 0 to 10, 0 is no effect, 10 is complete control
[12] = Rate 500 g/ha, Postemergence, scale 0 to 10, 0 no effect, 10 complete control
[13] = Rate 500 g/ha, Postemergence, scale 0 to 10
[14] = Postemergence, Rate 125 g/ha, scale 0 to 10, 0 is no effect, 10 is complete control
[15] = Preemergence, Rate 62 g/ha, scale 0 to 10 (0 no effect, 10 complete control)
[16] = Preemergence, Rate 250 g/ha, scale of 0 to 10 where 0 is no effect and 10 is complete control
[17] = Preemergence, Rate 500 g/ha, scale of 0 to 10 where 0 is no effect and 10 is complete control
[18] = Postemergence, Rate 62 g/ha, scale 0 to 10, 0 is no effect, 10 is complete control
[19] = Postemergence, Rate 250 g/ha, scale 0 to 10, 0 no effect, 10 complete control
[20] = Preemergence, Rate 62 g/ha, scale 0 to 10, 0 is no effect, 10 is complete control
[21] = Preemergence, Rate 125 g/ha, scale 0 to 10 (0 no effect, 10 complete control)
[22] = Preemergence, Rate 500 g/ha, scale 0 (no effect) to 10 (complete control)
[23] = Rate 125 g/ha, Postemergence, scale 0 to 10, 0 no effect, 10 complete control
[24] = Rate 500 g/ha, Postemergence, 0 to 10 scale (0 no effect, 10 complete control)
[25] = Postemergence, Rate 62 g/ha, scale of 0 to 10, 0 is no effect, 10 is complete control
[26] = Postemergence, Rate 250 g/ha, scale of 0 to 10, 0 is no effect, 10 is complete control
[27] = Postemergence, Rate 500 g/ha, scale of 0 to 10 where 0 is no effect and 10 is complete control
[28] = Preemergence, Rate 125 g/ha, scale of 0 to 10 where 0 is no effect and 10 is complete control

SMILES: Cc1nsc(C)c1-n1c(=O)on(C(=O)N(c2ccc(Cl)cc2)C(C)C)c1=O [Compound 159]
- B. signalgrass plant response rating [1, 5]: 0
- B. signalgrass plant response rating [1, 6]: 0
- B. signalgrass plant response rating (0 to 10 scale) [1, 7]: 0
- B. signalgrass plant response rating [1, 8]: 0
- B. signalgrass plant response rating [1, 9]: 0
- B. signalgrass plant response rating [1, 10]: 0
- Plant response rating, B. signalgrass [1, 11]: 0
- B. signalgrass plant response rating [1, 12]: 0
- Corn plant response rating [2, 5]: 0
- Corn plant response rating [2, 6]: 0
- Corn plant response rating (0 to 10 scale) [2, 7]: 0
- Corn plant response rating [2, 8]: 0
- Corn plant response rating [2, 9]: 0
- Corn plant response rating [2, 10]: 0
- Plant response rating, Corn [2, 11]: 0
- Corn plant response rating [2, 13]: 0
- Crabgrass plant response rating [3, 5]: 0
- Crabgrass plant response rating [3, 6]: 0
- Crabgrass plant response rating (0 to 10 scale) [3, 7]: 0
- Crabgrass plant response rating [3, 8]: 0
- Crabgrass plant response rating [3, 9]: 0
- Crabgrass plant response rating [3, 10]: 0
- Plant response rating, Crabgrass [3, 11]: 0
- Crabgrass plant response rating [3, 13]: 0
- Cocklebur plant response rating [4, 5]: 0
- Cocklebur plant response rating [4, 6]: 0
- Cocklebur plant response rating (0 to 10 scale) [4, 7]: 0
- Cocklebur plant response rating [4, 8]: 0
- Cocklebur plant response rating [4, 9]: 0
- Cocklebur plant response rating [4, 10]: 0
- Plant response rating, Cocklebur [4, 11]: 0
- Cocklebur plant response rating [4, 13]: 0

SMILES: CC(C)N(C(=O)n1oc(=O)n(C2CCCCCC2)c1=O)c1ccc(F)cc1F [Compound 342]
- Plant response rating, B. signalgrass [1, 14]: 0
- Plant response rating, B. signalgrass [1, 15]: 0
- B. signalgrass plant response rating (0 to 10 scale, 0 is no effect, 10 is complete control) ([1]; Preemergence, Rate 125 g/ha): 0
- B. signalgrass plant response rating [1, 16]: 2
- B. signalgrass plant response rating [1, 17]: 6
- B. signalgrass plant response rating [1, 10]: 0
- Plant response rating, B. signalgrass ([1]; Rate 250 g/ha, Postemergence, scale of 0 to 10 where 0 is no effect and 10 is complete control): 0
- Plant response rating, B. signalgrass [1, 12]: 1
- Plant response rating, Corn [2, 14]: 0
- Plant response rating, Corn [2, 15]: 0
- Corn plant response rating (0 to 10 scale) ([2]; Preemergence, Rate 125 g/ha): 0
- Corn plant response rating [2, 16]: 0
- Corn plant response rating [2, 17]: 0
- Corn plant response rating [2, 10]: 0
- Plant response rating, Corn [2, 12]: 0
- Plant response rating, Crabgrass [3, 14]: 0
- Plant response rating, Crabgrass [3, 15]: 4
- Crabgrass plant response rating (0 to 10 scale) ([3]; Preemergence, Rate 125 g/ha): 6
- Crabgrass plant response rating [3, 16]: 9
- Crabgrass plant response rating [3, 17]: 9
- Crabgrass plant response rating [3, 10]: 0
- Plant response rating, Crabgrass [3, 12]: 3
- Plant response rating, Cocklebur [4, 14]: 0
- Plant response rating, Cocklebur [4, 15]: 0
- Cocklebur plant response rating (0 to 10 scale) ([4]; Preemergence, Rate 125 g/ha): 0
- Cocklebur plant response rating [4, 17]: 0
- Cocklebur plant response rating [4, 10]: 0
- Plant response rating, Cocklebur [4, 12]: 0

SMILES: CC(C)N(C(=O)n1oc(=O)n(-c2c(Cl)cccc2Cl)c1=O)c1ccc(F)cc1 [Compound 19]
- B. signalgrass plant response rating [1, 18]: 0
- B. signalgrass plant response rating [1, 19]: 0
- Plant response rating, B. signalgrass [1, 20]: 0
- Plant response rating, B. signalgrass [1, 21]: 2
- Plant response rating, B. signalgrass [1, 16]: 2
- B. signalgrass plant response rating [1, 22]: 2
- B. signalgrass plant response rating [1, 23]: 0
- B. signalgrass plant response rating [1, 24]: 0
- Corn plant response rating [2, 18]: 0
- Corn plant response rating [2, 19]: 0
- Plant response rating, Corn [2, 20]: 0
- Plant response rating, Corn [2, 21]: 0
- Plant response rating, Corn [2, 16]: 0
- Corn plant response rating [2, 22]: 0
- Corn plant response rating [2, 23]: 0
- Corn plant response rating [2, 24]: 0
- Crabgrass plant response rating [3, 18]: 0
- Crabgrass plant response rating [3, 19]: 0
- Plant response rating, Crabgrass [3, 20]: 3
- Plant response rating, Crabgrass [3, 21]: 5
- Plant response rating, Crabgrass [3, 16]: 7
- Crabgrass plant response rating [3, 22]: 10
- Crabgrass plant response rating [3, 23]: 0
- Cocklebur plant response rating [4, 18]: 0
- Cocklebur plant response rating [4, 19]: 0
- Plant response rating, Cocklebur [4, 20]: 0
- Plant response rating, Cocklebur [4, 16]: 0
- Cocklebur plant response rating [4, 22]: 0
- Cocklebur plant response rating [4, 23]: 0
- Cocklebur plant response rating [4, 24]: 0

SMILES: CC(C)N(C(=O)n1oc(=O)n(CC(=O)C(F)(F)F)c1=O)c1ccc(F)cc1F [Compound 598]
- B. signalgrass plant response rating [1, 25]: 0
- Plant response rating, B. signalgrass [1, 5]: 0
- B. signalgrass plant response rating [1, 26]: 0
- Plant response rating, B. signalgrass [1, 27]: 0
- B. signalgrass plant response rating [1, 15]: 0
- B. signalgrass plant response rating [1, 28]: 0
- B. signalgrass plant response rating (0 to 10 scale, 0 is no effect, 10 is complete control) ([1]; Preemergence, Rate 250 g/ha): 0
- B. signalgrass plant response rating [1, 17]: 0
- Corn plant response rating [2, 25]: 0
- Plant response rating, Corn [2, 5]: 0
- Corn plant response rating [2, 26]: 0
- Plant response rating, Corn [2, 27]: 0
- Corn plant response rating [2, 15]: 0
- Corn plant response rating [2, 28]: 0
- Corn plant response rating (0 to 10 scale) ([2]; Preemergence, Rate 250 g/ha): 0
- Plant response rating, Corn [2, 17]: 0
- Crabgrass plant response rating [3, 25]: 0
- Plant response rating, Crabgrass [3, 5]: 0
- Crabgrass plant response rating [3, 26]: 0
- Plant response rating, Crabgrass [3, 27]: 0
- Crabgrass plant response rating [3, 15]: 0
- Crabgrass plant response rating [3, 28]: 0
- Plant response rating, Crabgrass [3, 17]: 0
- Cocklebur plant response rating [4, 25]: 0
- Plant response rating, Cocklebur [4, 5]: 0
- Cocklebur plant response rating [4, 26]: 0
- Plant response rating, Cocklebur [4, 27]: 0
- Cocklebur plant response rating [4, 15]: 0
- Cocklebur plant response rating [4, 28]: 0
- Cocklebur plant response rating (0 to 10 scale) ([4]; Preemergence, Rate 250 g/ha): 0
- Plant response rating, Cocklebur [4, 17]: 0

— US6737383B1, “Herbicidal oxadiazolidines” (priority 1999, dated 2004)
